Source: article PMC6880826 (Beilstein Journal of Organic Chemistry, 2019)
Read-outs that look alike come from different tables or passages of the source.

What was measured:
[1] = Mouse pharmacokinetics, plasma and brain, oral dose; assay type: in vivo, CD1 mouse; details: p.o. 10 mg/kg
Description: The route of administration and dose were selected to most closely match relevant published mouse disease model studies. […] Table S1: Study design summary S8 (1 picture or pasted object on this page, not shown here)

[2] = Metabolic stability in mouse liver microsomes (MLM); assay type: in vitro ADME
[3] = molecular target: T1, Notum(81-451 Cys330Ser) (Homo sapiens, UniProt Q6P988, C330S); assay: Notum OPTS fluorescence inhibition assay
T1 sequence (Q6P988 81-451 C330S): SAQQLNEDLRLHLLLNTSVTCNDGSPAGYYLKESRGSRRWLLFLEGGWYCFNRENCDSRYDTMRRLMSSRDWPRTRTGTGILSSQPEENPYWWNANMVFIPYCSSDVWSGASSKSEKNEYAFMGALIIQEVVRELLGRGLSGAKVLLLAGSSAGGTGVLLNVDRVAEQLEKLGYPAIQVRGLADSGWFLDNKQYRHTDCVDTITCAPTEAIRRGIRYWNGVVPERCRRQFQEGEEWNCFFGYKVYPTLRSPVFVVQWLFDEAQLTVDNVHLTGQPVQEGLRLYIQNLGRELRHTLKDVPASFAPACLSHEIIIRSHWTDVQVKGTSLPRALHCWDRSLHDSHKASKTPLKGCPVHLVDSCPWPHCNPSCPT

[4] = tested on: MDCK-MDR1 monolayer; assay: MDCK-MDR1 monolayer permeability / P-gp efflux; assay type: in vitro ADME; details: for efflux ratio: Table S4; for MDCK-mdr1 ER / MDCK-mdr1 AB / MDCK-mdr1 BA: csv file; for MDCK-mdr1 AB: AB direction; for MDCK-mdr1 BA: BA direction
[5] = tested on: P-gp (MDR1); assay: MDCK-MDR1 monolayer permeability / P-gp efflux; assay type: in vitro ADME; details: dog; for Papp: MDCK-MDR1, Table S4; for MDCK-MDR1 AB Papp: Table S4; for efflux ratio: MDCK-MDR1, csv file, read-out: MDCK-mdr1 ER
[6] = Table S4, mouse liver microsomes
[7] = AB direction, read-out: MDCK-MDR1 AB Papp
[8] = BA direction, read-out: MDCK-MDR1 BA Papp

Row | MLM Cli [2, 6] | IC50 [3] | efflux ratio [4] | MDCK-mdr1 AB [4] | MDCK-mdr1 BA [4] | Papp [5, 7] | Papp [5, 8] | MLM Cli ([2]; csv file) | Structure (SMILES) | other results
1 | 24 µL/min/mg | 7.1 nM | 8.2 | 7.9 x10–6 cm/s | 65 x10–6 cm/s | 7.9 ×10⁻⁶ cm/s | 65 ×10⁻⁶ cm/s | 24 µL/min/mg | O=C1CN(C(=O)CSc2ncnc3c(C4CC4)c(Cl)sc23)CCN1 [Compound 17i] | MDCK-mdr1 ER [4]: 8.2
2 | – | 36 nM | – | – | – | – | – | – | O=C1CN(C(=O)CSc2ncnc3c(C4CC4)c(Cl)sc23)CCCN1 [Compound 17j] | –
3 | – | 4.6 nM | – | – | – | – | – | – | O=C(CSc1ncnc2c(C3CC3)c(Cl)sc12)N1CCc2ncccc2C1 [Compound 17l] | –
4 | 290 µL/min/mg | 2.7 nM | 1.2 | 21 x10–6 cm/s | 25 x10–6 cm/s | 21 ×10⁻⁶ cm/s | 25 ×10⁻⁶ cm/s | 290 µL/min/mg | O=C(CSc1ncnc2c(C3CC3)c(Cl)sc12)N1CCn2ccnc2C1 [Compound 17m] | efflux ratio [5]: 1.2
5 | 49 µL/min/mg | 2.5 nM | 3.4 | 9 x10–6 cm/s | 31 x10–6 cm/s | 9 ×10⁻⁶ cm/s | 31 ×10⁻⁶ cm/s | 49 µL/min/mg | O=C(CSc1ncnc2c(C3CC3)c(Cl)sc12)N1CCn2cncc2C1 [Compound 17n] | efflux ratio [5]: 3.4
6 | – | 2.3 nM | – | – | – | – | – | – | O=C(CSc1ncnc2c(C3CC3)c(Cl)sc12)N1CCc2[nH]cnc2C1 [Compound 17o] | –
7 | 29 µL/min/mg | 1.2 nM | 98 | 0.95 x10–6 cm/s | 93 x10–6 cm/s | – | 93 ×10⁻⁶ cm/s | 29 µL/min/mg | O=C(CSc1ncnc2c(C3CC3)c(Cl)sc12)N1CCn2cnnc2C1 [Compound 17p] | MDCK-mdr1 ER [4]: 98; MDCK-MDR1 AB Papp ([5]; AB direction): 0.95 ×10⁻⁶ cm/s
8 | 190 µL/min/mg | 8 nM | 2.8 | 12 x10–6 cm/s | 34 x10–6 cm/s | 12 ×10⁻⁶ cm/s | 34 ×10⁻⁶ cm/s | 190 µL/min/mg | O=C(CSc1ncnc2c(C3CC3)c(Cl)sc12)N1CCn2c(nnc2C(F)(F)F)C1 [Compound 17q] | efflux ratio [5]: 2.8
9 | 110 µL/min/mg | 2.4 nM | 1.1 | 26 x10–6 cm/s | 28 x10–6 cm/s | 26 ×10⁻⁶ cm/s | 28 ×10⁻⁶ cm/s | 110 µL/min/mg | O=C(CSc1ncnc2c(C3CC3)c(Cl)sc12)N1CCn2nncc2C1 [Compound 17r] | efflux ratio [5]: 1.1

The remaining lines, values behind:

Row | Structure (SMILES) | MLM Cli [2, 6] | IC50 [3] | efflux ratio [4] | MDCK-mdr1 AB [4] | MDCK-mdr1 BA [4] | Papp [5, 7] | Papp [5, 8] | MLM Cli ([2]; csv file) | other results
10 | O=C(O)CSc1ncnc2c(C3CC3)c(Cl)sc12 [Compound 1] | 1e+06 µL/min/mg | – | – | – | – | – | – | – | Cmax ([1]; CD1, po, brain): 500 ng/g; Tmax ([1]; CD1, po, brain): 2 h; half-life ([1]; CD1, po, brain): 426 min; AUC(0-inf) ([1]; CD1, po, plasma): 354 µg·h/mL; AUC(0-t) ([1]; CD1, po, plasma): 303 µg·h/mL; Cmax ([1]; CD1, po, plasma): 35400 ng/mL; Tmax ([1]; CD1, po, plasma): 2 h; half-life ([1]; CD1, po, plasma): 528 min; AUC0→t ([1]; brain): 3,700 h·ng/g; AUC0→∞ ([1]; brain): 4,080 h·ng/g; Cli in mouse liver microsomes (MLM) [2]: 1.0 μL/min/mg protein
11 | CN(C)C(=O)CSc1ncnc2c(C3CC3)c(Cl)sc12 [Compound 17a] | – | 7.5 nM | – | – | – | – | – | – | –
12 | O=C(CSc1ncnc2c(C3CC3)c(Cl)sc12)N1CCCCC1 [Compound 17b] | – | 91 nM | – | – | – | – | – | – | –
13 | O=C(CSc1ncnc2c(C3CC3)c(Cl)sc12)N1CCOCC1 [Compound 17c] | > 500 µL/min/mg | 18 nM | 0.95 | 40 x10–6 cm/s | 38 x10–6 cm/s | 40 ×10⁻⁶ cm/s | 38 ×10⁻⁶ cm/s | > 500 µL/min/mg | MDCK-mdr1 ER [4]: 0.95
14 | O=C(CSc1ncnc2c(C3CC3)c(Cl)sc12)N1CCS(=O)(=O)CC1 [Compound 17d] | – | 48 nM | – | – | – | – | – | – | –
15 | O=C(CSc1ncnc2c(C3CC3)c(Cl)sc12)N1CC2COCC2C1 (stereo not shown) [Compound 17e] | > 500 µL/min/mg | 10 nM | – | – | – | – | – | > 500 µL/min/mg | –
16 | O=C(CSc1ncnc2c(C3CC3)c(Cl)sc12)N1CC2(COC2)C1 [Compound 17f] | 100 µL/min/mg | 10 nM | – | – | – | – | – | 100 µL/min/mg | –
17 | O=C1CN(C(=O)CSc2ncnc3c(C4CC4)c(Cl)sc23)CN1 [Compound 17g] | 19 µL/min/mg | 1.5 nM | 3.7 | 3.8 x10–6 cm/s | 14 x10–6 cm/s | – | 14 ×10⁻⁶ cm/s | 19 µL/min/mg | MDCK-mdr1 ER [4]: 3.7; MDCK-MDR1 AB Papp ([5]; AB direction): 3.8 ×10⁻⁶ cm/s
18 | CN1CN(C(=O)CSc2ncnc3c(C4CC4)c(Cl)sc23)CC1=O [Compound 17h] | 45 µL/min/mg | 1.5 nM | 2.2 | 6 x10–6 cm/s | 13 x10–6 cm/s | 6 ×10⁻⁶ cm/s | 13 ×10⁻⁶ cm/s | 45 µL/min/mg | efflux ratio [5]: 2.2
19 | O=C1CCN(C(=O)CSc2ncnc3c(C4CC4)c(Cl)sc23)CCN1 [Compound 17k] | – | 49 nM | – | – | – | – | – | – | –
